These are literature values, as cited in US7763563B2, “Niobium compounds and hydrates thereof, formulations containing the same, and methods of providing specifications therefor” (H. C. Starck GmbH, priority 2006, dated 2010).

The conditions of the series: prior art compounds, Limar et al.

For the substance (NH4)3[Nb(O)(C2O4)3]*x H2O, the water solubility is 40 g Nb/1.
